Results: US11667643B2, “RIP1K inhibitors” (priority 2020, dated 2023)
Where two headings read alike, the source gives them in different places.

Tests used:
RIPK1 = RIPK1 (Homo sapiens (Human), UniProt Q13546); assay: biochemical; type: biochemical; settings: RIPK1 enzyme 31 ng/well, 30° C. for 30 minutes, luminescence; read-out: RIPK1 ADP-Glo Kinase (IC50)
Procedure: In this example, compounds of the disclosure were evaluated using a biochemical assay using the ADP-Glo™ technology.
ADP-Glo™ (Promega, Madison, Wis., USA) reagents were thawed at ambient temperature. Kinase Detection Reagent was prepared by mixing kinase detection buffer with the lyophilized kinase detection substrate.
A […] stock volume of 5× Reaction Kinase Buffer was made by mixing 1000 μl of 1M MgCl2, 500 μl of 1M Tris-HCL pH7.4, 0.5 mg/ml (25 mg) of BSA, and 3475 μl of distilled H2O. A 3 ml 2× working stock volume of Reaction Kinase Buffer was made containing a final concentration of 100 μM DTT and 4 mM MnCl2.
Components of RIPK1 enzyme (Rigel Pharmaceuticals, South San Francisco, Calif., USA) were thawed on ice. Diluted RIPK1 was prepared in 1× Kinase Reaction Buffer (diluted from 2× buffer) to 31 ng/well.
1.0 ul of diluted compound was added to a 384 well plate in duplicate. […] The final reaction volume was 5.0 μl. The plate was quickly centrifuged and the reaction was incubated at 30° C. for 30 minutes. Adding 5 μl of ADP-Glo™ terminated the reaction. The plate was quickly centrifuged and the reaction was incubated at room temperature for 40 minutes. Kinase Detection Reagent was then added and incubated at room temperature for 30 minutes. The relative light unit (RLU) of kinase reaction was determined by luminescent (Luminescence 0.1 s) using a Wallac Victor2 Luminometer (PerkinElmer, Waltham, Mass., USA).

U937 cells = assay: U937 cell necroptosis assay (TNFa + zVAD, CellTiter-Glo recovery), functional human RIP1 assay; type: cell-based
Procedure: (§1) In this example, U937 and L929 cells were exposed to compounds of the present disclosure and a cell necroptosis assay was conducted to evaluate compound activity in functional human RIP1 and murine RIP1 assays.
(§2) U937 and L929 cells were obtained from the American Type Culture Collection (Manassa, Va., USA). Both cells were maintained in logarithmic growth phase in complete RPMI 1640 media (Sigma, ST Louis, Mo., USA) supplemented with 10% fetal bovine serum (Sigma, ST Louis, Mo., USA) at 37° C. with 5% CO2. For necroptosis assay, L929 cells were plated for 18 h in 100 μL/well medium at 10K cells/well in Costar 96-well black clear-bottom plates (Fisher Scientific, Hampton, N.H., USA); U937 cells were plated on the day of the assay in 50 μL/well medium containing 60 uM zVAD-fmk (Lonza, Basel, Switzerland) at 50K cells/well. Medium from L929 cells were removed from the 96-well plates and replaced with 50 μL/well new medium containing 40 uM zVAD-fmk. Each compound of the present disclosure evaluated in this example was serially diluted in DMSO from 2.5 mM in 4-fold dilutions, and then diluted 1:125 in complete medium. 50 μL/well 2× of the compound was then added to the cells in the plates. The cells were pre-incubated with the compound for 1 hour at 37° C. with 5% CO2 and before addition of 10 μL/well 11×TNFa (Peprotech, Rocky Hill, N.J., USA) to give a final concentration of 2 ng/mL for TNFa. The relative amount of necroptosis cells was determined by luminescent using a Wallac Victor2 Luminometer (PerkinElmer, Waltham, Mass., USA) and a CellTiter-Glo® Luminescent Cell Viability Reagent Assay (Promega, Madison, Wis., USA) added per manufacturer instructions after 18 hours of TNFa stimulation at 37° C. with 5% CO2. This example establishes that embodiments of the compounds described herein have unexpectedly potent activity against human RIP1 and murine RIP1, which allows their assessment in in vivo mouse models of disease.

L929 cells = assay: L929 cell necroptosis assay (TNFa + zVAD, CellTiter-Glo recovery), functional murine RIP1 assay; type: cell-based
Procedure: as §1, §2

[1] = Homo sapiens, U-937, 18 h, read-out: U937 Zvad TNF CTG Recovery, U937, TNFa + zVAD (IC50), U937 cells, zVAD-fmk, TNFa 2 ng/mL, 18 hours, CellTiter-Glo
[2] = Mus musculus, L929, 18 h, read-out: L929-CTG-recovery, L929, TNFa + zVAD (IC50), L929 cells, zVAD-fmk, TNFa 2 ng/mL, 18 hours, CellTiter-Glo
[3] = read-out: U937 Zvad TNF CTG Recovery, U937, TNFa + zVAD (IC50), U937 cells, zVAD-fmk, TNFa 2 ng/mL, 18 hours, CellTiter-Glo
[4] = read-out: L929-CTG-recovery, L929, TNFa + zVAD (IC50), L929 cells, zVAD-fmk, TNFa 2 ng/mL, 18 hours, CellTiter-Glo

Chain of RIPK1 (Q13546 whole entry, species assumed): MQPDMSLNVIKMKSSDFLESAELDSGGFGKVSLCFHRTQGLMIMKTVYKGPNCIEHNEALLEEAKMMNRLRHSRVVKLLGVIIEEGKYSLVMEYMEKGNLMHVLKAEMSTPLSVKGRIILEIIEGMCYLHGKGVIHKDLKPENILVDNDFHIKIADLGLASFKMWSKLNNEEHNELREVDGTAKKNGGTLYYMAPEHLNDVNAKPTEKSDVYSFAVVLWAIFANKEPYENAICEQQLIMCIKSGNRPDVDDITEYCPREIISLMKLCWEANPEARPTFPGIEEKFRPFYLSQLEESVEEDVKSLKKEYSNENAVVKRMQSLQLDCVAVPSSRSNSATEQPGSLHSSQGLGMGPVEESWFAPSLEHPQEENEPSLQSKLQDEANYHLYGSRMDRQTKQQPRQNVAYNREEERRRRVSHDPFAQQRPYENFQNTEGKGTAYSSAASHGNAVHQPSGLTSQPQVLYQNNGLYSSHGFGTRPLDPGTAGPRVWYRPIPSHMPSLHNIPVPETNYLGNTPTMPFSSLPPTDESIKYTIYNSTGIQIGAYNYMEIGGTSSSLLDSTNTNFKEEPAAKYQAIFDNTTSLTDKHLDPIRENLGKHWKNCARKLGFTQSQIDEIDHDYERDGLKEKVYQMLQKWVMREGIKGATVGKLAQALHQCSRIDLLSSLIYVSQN

## O=C(NC1CCc2ccccc2-n2c1noc2=O)c1cc(Oc2ccccc2)ccn1 (racemic) [Compound I-52, (±)-N-(1-Oxo-5,6-dihydro-1H,4H-benzo[f][1,2,4]oxadiazolo[4,3-a]azepin-4-yl)-4-phenoxypicolinamide]
RIPK1
  IC50: 0.0325 µM
U937 cells; [1]
  IC50: 0.0647 µM
L929 cells; [2]
  IC50: 20.8 µM

## O=C(N[C@H]1C[S+]([O-])c2ccccc2-n2nnnc21)c1cc(Cc2ccccc2)on1 (stereo partly drawn) [Compound I-26, 5-Benzyl-N-((4R)-6-oxido-4,5-dihydrobenzo[b]tetrazolo[1,5-d][1,4]thiazepin-4-yl)isoxazole-3-carboxamide]
RIPK1
  IC50: 1.37 µM
U937 cells; [1]
  IC50: 0.176 µM
L929 cells; [2]
  IC50: 10000 µM

## Cc1cnc2n1-c1ccccc1CCC2NC(=O)c1ncn(Cc2c(Cl)cccc2Cl)n1 (racemic) [Compound I-44, (±)-1-(2,6-Dichlorobenzyl)-N-(1-methyl-5,6-dihydro-4H-benzo[f]imidazo[1,2-a]azepin-4-yl)-1H-1,2,4-triazole-3-carboxamide]
RIPK1
  IC50: 0.947 µM
U937 cells; [1]
  IC50: 1.67 µM
L929 cells; [2]
  IC50: 10000 µM

## O=C(NC1CCc2ccccc2-n2cnnc21)c1n[nH]c(Cc2ccccc2)n1 (racemic) [Compound I-57, (±)-5-Benzyl-N-(5,6-dihydro-4H-benzo[f][1,2,4]triazolo[4,3-a]azepin-4-yl)-1H-1,2,4-triazole-3-carboxamide]
RIPK1
  IC50: 0.663 µM
U937 cells; [1]
  IC50: 3.65 µM
L929 cells; [2]
  IC50: 10000 µM

## O=C(NC1COc2ccccc2-n2cccc21)c1cc(Oc2ccccc2)ccn1 (racemic) [Compound I-54, (±)-N-(6,7-Dihydrobenzo[b]pyrrolo[1,2-d][1,4]oxazepin-7-yl)-4-phenoxypicolinamide]
RIPK1
  IC50: 0.582 µM
U937 cells; [1]
  IC50: 1.25 µM
L929 cells; [2]
  IC50: 10000 µM

## O=C(NC1CCc2ccccc2-n2ccnc21)c1n[nH]c(Cc2ccccc2)n1 (racemic) [Compound I-1, (±)-5-Benzyl-N-(5,6-dihydro-4H-benzo[f]imidazo[1,2-a]azepin-4-yl)-1H-1,2,4-triazole-3-carboxamide]
U937 cells; [1]
  IC50: 0.376 µM
L929 cells; [2]
  IC50: 10000 µM

## CC(C)(O)C#Cc1ccc2c(c1)-n1ccnc1[C@@H](NC(=O)c1n[nH]c(Cc3ccccc3)n1)CC2 [Compound I-82, (S)-5-Benzyl-N-(9-(3-hydroxy-3-methylbut-1-yn-1-yl)-5,6-dihydro-4H-benzo[f]imidazo[1,2-a]azepin-4-yl)-1H-1,2,4-triazole-3-carboxamide]
U937 cells; [1]
  IC50: 0.0084 µM
L929 cells; [2]
  IC50: 5.29 µM

## O=C(NC1CCc2ccccc2-n2ccnc21)c1ncnn1Cc1c(Cl)cccc1Cl (racemic) [Compound I-6, (±)-1-(2,6-Dichlorobenzyl)-N-(5,6-dihydro-4H-benzo[f]imidazo[1,2-a]azepin-4-yl)-1H-1,2,4-triazole-5-carboxamide]
U937 cells; [1]
  IC50: 885 µM
L929 cells; [2]
  IC50: 10000 µM

## CN1C(=O)[C@@H](N2CCc3c(nn(Cc4ccccc4)c3Cl)C2=O)COc2cc(C#CC(C)(C)O)ccc21 [Compound I-78]
U937 cells; [1]
  IC50: 0.0022 µM
L929 cells; [2]
  IC50: 0.0061 µM

## CC(C)(O)C#Cc1ccc2c(c1)-n1ccnc1C(NC(=O)c1n[nH]c(Cc3ccccc3)n1)CO2 (racemic) [Compound I-90, (±)-5-Benzyl-N-(9-(3-hydroxy-3-methylbut-1-yn-1-yl)-4,5-dihydrobenzo[b]imidazo[1,2-d][1,4]oxazepin-4-yl)-1H-1,2,4-triazole-3-carboxamide]
U937 cells; [1]
  IC50: 0.17 µM
L929 cells; [2]
  IC50: 10000 µM

## CC(C)(O)C#Cc1ccc2c(c1)-n1ccnc1C(NC(=O)c1n[nH]c(Cc3ccccc3)n1)CC2 (racemic) [Compound I-55, (±)-5-Benzyl-N-(9-(3-hydroxy-3-methylbut-1-yn-1-yl)-5,6-dihydro-4H-benzo[f]imidazo[1,2-a]azepin-4-yl)-1H-1,2,4-triazole-3-carboxamide]
U937 cells; [1]
  IC50: 0.0206 µM
L929 cells; [2]
  IC50: 9.5 µM

## O=C(NC1CCc2ccccc2-n2ccnc21)c1ncn(Cc2c(Cl)cccc2Cl)n1 (single isomer, unassigned) [Compound I-13]
U937 cells; [3]
  IC50: 0.003 µM
L929 cells; [4]
  IC50: 3.38 µM

## CC(C)(O)C#Cc1ccc2c(c1)-n1nnnc1[C@@H](NC(=O)c1cc(O)n(Cc3ccccc3)n1)CO2 [Compound I-76, (R)-1-Benzyl-5-hydroxy-N-(9-(3-hydroxy-3-methylbut-1-yn-1-yl)-4,5-dihydrobenzo[b]tetrazolo[1,5-d][1,4]oxazepin-4-yl)-1H-pyrazole-3-carboxamide]
U937 cells; [1]
  IC50: 10000 µM
L929 cells; [2]
  IC50: 10000 µM

## CC(C)(O)C#Cc1ccc2c(c1)-n1ccnc1[C@H](NC(=O)c1n[nH]c(Cc3ccccc3)n1)CO2 [Compound I-91, (S)-5-Benzyl-N-(9-(3-hydroxy-3-methylbut-1-yn-1-yl)-4,5-dihydrobenzo[b]imidazo[1,2-d][1,4]oxazepin-4-yl)-1H-1,2,4-triazole-3-carboxamide]
U937 cells; [1]
  IC50: 10000 µM
L929 cells; [2]
  IC50: 10000 µM

## O=C(NC1CCc2ccccc2-n2ccnc21)c1ncn(Cc2c(Cl)cccc2Cl)n1 (single isomer, unassigned) [Compound I-12]
U937 cells; [3]
  IC50: 17 µM
L929 cells; [4]
  IC50: 10000 µM

## O=C(NC1CCc2ccccc2-n2c1nc(Cl)c2Cl)c1cc(Cc2ccccc2)on1 (racemic) [Compound I-70, (±)-5-Benzyl-N-(1,2-dichloro-5,6-dihydro-4H-benzo[f]imidazo[1,2-a]azepin-4-yl)isoxazole-3-carboxamide]
U937 cells; [1]
  IC50: 73.4 µM
L929 cells; [2]
  IC50: 10000 µM

## O=C(N[C@H]1COc2ccccc2-n2nnnc21)c1ncnn1Cc1c(Cl)cccc1Cl [Compound I-10, (R)-1-(2,6-Dichlorobenzyl)-N-(4,5-dihydrobenzo[6]tetrazolo[1,5-d][1,4]oxazepin-4-yl)-1H-1,2,4-triazole-5-carboxamide]
U937 cells; [1]
  IC50: 5020 µM
L929 cells; [2]
  IC50: 10000 µM

## Cc1cccc(C)c1Cn1cnc(C(=O)N[C@H]2COc3ccccc3-n3nnnc32)n1 [Compound I-20, (R)—N-(4,5-Dihydrobenzo[&]tetrazolo[1,5-d][1,4]oxazepin-4-yl)-1-(2,6-dimethylbenzyl)-1H-1,2,4-triazole-3-carboxamide]
RIPK1
  IC50: 1.87 µM
U937 cells; [1]
  IC50: 1.56 µM

## CC(C)(O)C#Cc1ccc2c(c1)-n1ccnc1C(NC(=O)c1n[nH]c(Cc3ccccc3)n1)CO2 (single isomer, unassigned) [Compound I-92]
U937 cells; [1]
  IC50: 0.0676 µM
L929 cells; [2]
  IC50: 6 µM

## O=C(NC1CCc2ccccc2-n2ccnc21)c1n[nH]c(Cc2ccccc2)n1 (single isomer, unassigned) [Compound I-4]
U937 cells; [3]
  IC50: 0.203 µM
L929 cells; [4]
  IC50: 10000 µM

## Cc1cnc2n1-c1ccccc1CCC2NC(=O)c1n[nH]c(Cc2ccccc2)n1 (racemic) [Compound I-40, (±)-5-Benzyl-N-(1-methyl-5,6-dihydro-4H-benzo[f]imidazo[1,2-a]azepin-4-yl)-1H-1,2,4-triazole-3-carboxamide]
U937 cells; [1]
  IC50: 10000 µM
L929 cells; [2]
  IC50: 10000 µM

## O=C(NC1CCc2ccccc2-n2ccnc21)c1n[nH]c(Cc2ccccc2)n1 (single isomer, unassigned) [Compound I-5]
U937 cells; [3]
  IC50: 86.6 µM
L929 cells; [2]
  IC50: 10000 µM

## O=C(NC1CCc2ccccc2-n2ccnc21)c1ncn(Cc2c(Cl)cccc2Cl)n1 (racemic) [Compound I-7, (±)-1-(2,6-dichlorobenzyl)-N-(5,6-dihydro-4H-benzo[f]imidazo[1,2-a]azepin-4-yl)-1H-1,2,4-triazole-3-carboxamide]
U937 cells; [1]
  IC50: 0.0137 µM
L929 cells; [2]
  IC50: 12.7 µM
